What was measured:
Assay type in all cases: in vivo
[1] = test system: windgrass (Apera spica-venti); assay: Test B postemergence plant response
In short: (§1)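 Plants at the 1- to 4-leaf stage (2 to 18 cm tall), grown in pots of peat moss/vermiculite medium with wetting agent and starter nutrients, received postemergence applications of test chemicals. After 13 to 15 days in a greenhouse, injury was rated visually against untreated controls on a 0 (no effect) to 100 (complete control) scale.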

[2] = test system: chickweed (Stellaria media); assay: Test B postemergence plant response
In short: as §1

[3] = test system: canarygrass (Phalaris minor); assay: Test B postemergence plant response
In short: as §1

[4] = test system: pigweed (Amaranthus retroflexus); assay: Test B pre-/postemergence plant response
In short: (§2)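 Seeds were sown in loam soil/sand blend and treated preemergence with compound in non-phytotoxic solvent mixture containing surfactant; postemergence sprays, same formulation, went onto plants 2 to 18 cm (1- to 4-leaf stage) in peat-based planting medium. Greenhouse 13 to 15 days, then visual rating versus untreated controls, 0 (no effect) to 100 (complete control).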

[5] = test system: Surinam grass (Brachiaria decumbens); assay: Test B pre-/postemergence plant response
In short: as §2

soybean (Glycine max) = assay: Test B pre-/postemergence plant response
In short: as §2

[6] = test system: blackgrass (Alopecurus myosuroides); assay: Test B pre-/postemergence plant response
In short: as §2

[7] = test system: wheat (Triticum aestivum); assay: Test B pre-/postemergence plant response
In short: as §2

[8] = test system: cocklebur (Xanthium strumarium); assay: Test B pre-/postemergence plant response
In short: as §2

[9] = test system: velvetleaf (Abutilon theophrasti); assay: Test B pre-/postemergence plant response
In short: as §2

[10] = test system: lambsquarters (Chenopodium album); assay: Test B pre-/postemergence plant response
In short: as §2

kochia (Kochia scoparia) = assay: Test B pre-/postemergence plant response
In short: as §2

wild oat (Avena fatua) = assay: Test B pre-/postemergence plant response
In short: as §2

[11] = 31 g ai/ha, postemergence, scale 0 to 100, 0 is no effect, 100 is complete control
[12] = Postemergence, 62 g ai/ha, scale 0 (no effect) to 100 (complete control), 13 to 15 days
[13] = Postemergence, 125 g ai/ha, visual rating after 13 to 15 days, scale 0 (no effect) to 100 (complete control)
[14] = Postemergence, 250 g ai/ha, scale 0 to 100 (0 no effect, 100 complete control)
[15] = Preemergence, 31 g ai/ha, scale 0 to 100 (0 no effect, 100 complete control)
[16] = Preemergence, 62 g ai/ha, scale 0 to 100 (0 no effect, 100 complete control)
[17] = Preemergence, 125 g ai/ha, scale 0 to 100, 0 no effect, 100 complete control
[18] = 250 g ai/ha, Preemergence, 0 to 100 scale

With `O=C1CCCC(O)=C1C(=O)c1cnc(-c2ccsc2)n(-c2ccccc2)c1=O` [Compound 56] the “Plant response rating, Windgrass” value [1, 11] was 30, the “Plant response rating, Windgrass” value [1, 12] was 40 and the “Plant response rating, Windgrass” value [1, 13] was 60. The “Plant response rating, Windgrass” value [1, 14] was 85, the “Plant response rating, Chickweed” value [2, 11] was 90 and the “Plant response rating, Chickweed” value [2, 12] was 95. The “Plant response rating, Chickweed” value [2, 13] was 98, the “Plant response rating, Chickweed” value [2, 14] was 98 and the “Plant response rating, Canarygrass” value [3, 11] was 0. For the same compound, the “Plant response rating, Canarygrass” value [3, 12] was 30, the “Plant response rating, Canarygrass” value [3, 13] was 40 and the “Plant response rating, Canarygrass” value [3, 14] was 40. The “Plant response rating, Pigweed” value [4, 11] was 98, the “Plant response rating, Pigweed” value [4, 12] was 98 and the “Plant response rating, Pigweed” value [4, 13] was 100. The “Plant response rating, Pigweed” value [4, 14] was 100, the “Plant response rating, Pigweed” value [4, 15] was 98 and the “Plant response rating, Pigweed” value [4, 16] was 100. The “Plant response rating, Pigweed” value [4, 17] was 100, the “Plant response rating, Surinam Grass” value [5, 11] was 75 and the “Plant response rating, Surinam Grass” value [5, 12] was 80. The “Plant response rating, Surinam Grass” value [5, 13] was 85, the “Plant response rating, Surinam Grass” value [5, 14] was 100 and the “Plant response rating, Surinam Grass” value [5, 15] was 55. The “Plant response rating, Surinam Grass” value [5, 16] was 95, the “Plant response rating, Surinam Grass” value [5, 17] was 98 and the “Plant response rating, Soybean” value (soybean (Glycine max); [11]) was 85. The “Plant response rating, Soybean” value (soybean (Glycine max); [12]) was 85, the “Plant response rating, Soybean” value (soybean (Glycine max); [13]) was 95 and the “Plant response rating, Soybean” value (soybean (Glycine max); [14]) was 98. The “Plant response rating, Soybean” value (soybean (Glycine max); [15]) was 20, the “Plant response rating, Soybean” value (soybean (Glycine max); [17]) was 80 and the “Plant response rating, Blackgrass” value [6, 11] was 0. For the same compound, the “Plant response rating, Blackgrass” value [6, 18] was 5, the “Plant response rating, Blackgrass” value [6, 12] was 10 and the “Plant response rating, Blackgrass” value [6, 13] was 20. For the same compound, the “Plant response rating, Blackgrass” value [6, 14] was 20, the “Plant response rating, Blackgrass” value [6, 15] was 0 and the “Plant response rating, Blackgrass” value [6, 16] was 0. The “Plant response rating, Blackgrass” value [6, 17] was 0, the “Plant response rating, Wheat” value [7, 11] was 0 and the “Plant response rating, Wheat” value [7, 12] was 0. For the same compound, the “Plant response rating, Wheat” value [7, 13] was 0, the “Plant response rating, Wheat” value [7, 14] was 0 and the “Plant response rating, Wheat” value [7, 15] was 0. The “Plant response rating, Wheat” value [7, 16] was 0, the “Plant response rating, Wheat” value [7, 17] was 0 and the “Plant response rating, Cocklebur” value [8, 11] was 5. For the same compound, the “Plant response rating, Cocklebur” value [8, 18] was 0, the “Plant response rating, Cocklebur” value [8, 12] was 55 and the “Plant response rating, Cocklebur” value [8, 13] was 75. The “Plant response rating, Cocklebur” value [8, 14] was 95, the “Plant response rating, Cocklebur” value [8, 15] was 0 and the “Plant response rating, Cocklebur” value [8, 16] was 0. The “Plant response rating, Cocklebur” value [8, 17] was 0, the “Plant response rating, Velvetleaf” value [9, 11] was 85 and the “Plant response rating, Velvetleaf” value [9, 12] was 90. For the same compound, the “Plant response rating, Velvetleaf” value [9, 13] was 98, the “Plant response rating, Velvetleaf” value [9, 14] was 98 and the “Plant response rating, Velvetleaf” value [9, 15] was 85. The “Plant response rating, Velvetleaf” value [9, 16] was 90, the “Plant response rating, Velvetleaf” value [9, 17] was 98 and the “Plant response rating, Lambsquarters” value [10, 11] was 98. The “Plant response rating, Lambsquarters” value [10, 18] was 98, the “Plant response rating, Lambsquarters” value [10, 12] was 98 and the “Plant response rating, Lambsquarters” value [10, 13] was 100. For the same compound, the “Plant response rating, Lambsquarters” value [10, 14] was 100, the “Plant response rating, Lambsquarters” value [10, 15] was 95 and the “Plant response rating, Lambsquarters” value [10, 16] was 98. For the same compound, the “Plant response rating, Lambsquarters” value [10, 17] was 98, the “Plant response rating, Kochia” value (kochia (Kochia scoparia); [11]) was 90 and the “Plant response rating, Kochia” value (kochia (Kochia scoparia); [12]) was 95. The “Plant response rating, Kochia” value (kochia (Kochia scoparia); [13]) was 100, the “Plant response rating, Kochia” value (kochia (Kochia scoparia); [14]) was 100 and the “Plant response rating, Oat, Wild” value (wild oat (Avena fatua); [11]) was 5. The “Plant response rating, Oat, Wild” value (wild oat (Avena fatua); [12]) was 20, the “Plant response rating, Oat, Wild” value (wild oat (Avena fatua); [13]) was 40 and the “Plant response rating, Oat, Wild” value (wild oat (Avena fatua); [14]) was 45. For the same compound, the “Plant response rating, Oat, Wild” value (wild oat (Avena fatua); [15]) was 0, the “Plant response rating, Oat, Wild” value (wild oat (Avena fatua); [16]) was 0 and the “Plant response rating, Oat, Wild” value (wild oat (Avena fatua); [17]) was 0.
